In paper PMC9539280 (Advanced Science, 2022):

How the values were obtained:
hCMs [1] = assay: Spontaneous calcium transient measurement (Fluo-4) in hCMs; conditions: spontaneous, 6 days
hCMs [2] = test system: hCMs
[3] = escalating concentrations (lopinavir: high dosage only)

| SMILES | calcium transient amplitude (hCMs [1]; escalating concentrations (1-20 μM)) | time to 50% decay of the calcium transients (hCMs [1]; [3]) | time to peak of the calcium transients (hCMs [1]; [3]) | spontaneous calcium transients (hCMs [2]) |
| --- | --- | --- | --- | --- |
| CCC(CC)COC(=O)[C@H](C)N[P@](=O)(OC[C@H]1O[C@@](C#N)(c2ccc3c(N)ncnn23)[C@H](O)[C@@H]1O)Oc1ccccc1 [Remdesivir, remdesivir] | tended to decrease | significantly increased | significantly increased |  |
| Cc1cccc(/C=N/Nc2cc(N3CCOCC3)nc(OCCc3ccccn3)n2)c1 [Apilimod, apilimod] |  |  |  | no calcium transients were observed |
